One series relates to BVDV. In words: microbe, parasite or virus in culture. In kind it is cell-based, bovine viral diarrhoea virus. The conditions noted are these: Bovine viral diarrhea virus isolates and strains, MDBK, in Bos taurus, read-out: BVDV EC50.
Another series has as its system YFV. As to the kind of experiment: microbe, parasite or virus in culture. In kind it is cell-based. The conditions noted are these: Yellow fever virus, BHK, read-out: YFV EC50.
Series [1] in a line: Cytotoxicity, MTT method. The conditions noted are these: cattle (Bos taurus). In general terms: Formazan colour is commonly taken as a measure of viable cells.
Series [2] is described as follows: Cytotoxicity, MTT method. The conditions noted are these: Syrian hamster (Mesocricetus auratus).
For a further series, the system named is Reo-1. As to the kind of experiment: microbe, parasite or virus in culture. The series is classed as cell-based, reovirus type-1. The conditions noted are these: Reovirus sp., BHK, read-out: Reo-1 EC50.
A further series deals with CV-B5. As to the kind of experiment: microbe, parasite or virus in culture. The series is classed as cell-based, coxsackievirus B5. The conditions noted are these: Enterovirus B, CVB5, Vero 76, read-out: CV-B5 EC50.
Another series deals with VV. As to the kind of experiment: microbe, parasite or virus in culture. In kind it is cell-based. The conditions noted are these: Orthopoxvirus vaccinia, Vero 76, read-out: VV EC50.
For a further series, the system named is RSV. In words: microbe, parasite or virus in culture. In kind it is cell-based, human respiratory syncytial virus. The conditions noted are these: for EC50: human respiratory syncytial virus, Vero 76, read-out: RSV EC50.
For another series, the system named is HIV-1. In words: microbe, parasite or virus in culture. The conditions noted are these: Human immunodeficiency virus 1, MT4, read-out: HIV-1 EC50.
A short description of series [3]: Cytotoxicity, MTT method. The conditions noted are these: African green monkey (Cercopithecus aethiops).
The nature of series [4]: Cytotoxicity, MTT method. The conditions noted are these: human.
The next series has as its system HSV-1. In words: microbe, parasite or virus in culture. The series is classed as cell-based, human herpes 1. The conditions noted are these: Human alphaherpesvirus 1, Vero 76, read-out: HSV-1 EC50.
The test system of a further series is Sb-1. As to the kind of experiment: microbe, parasite or virus in culture. In kind it is cell-based, poliovirus type-1. The conditions noted are these: Enterovirus C, Vero 76, read-out: Sb-1 EC50.
The subject of a further series is VSV. In words: microbe, parasite or virus in culture. The conditions noted are these: Vesicular stomatitis virus, Vero 76, read-out: VSV EC50. In kind it is cell-based.
Series [5] deals with B. subtilis ATCC 6633. As to the kind of experiment: MIC, twofold serial agar dilution. The series is classed as cell-based. The conditions noted are these: Bacillus subtilis, ATCC6633, 18 h, 35 °C, read-out: minimal inhibitory concentrations (MIC). For orientation: In agar dilution, organisms are placed on agar that contains the substance at set levels.
The subject of series [6] is S. aureus ATCC 25923. As to the kind of experiment: MIC, twofold serial agar dilution. In kind it is cell-based. The conditions noted are these: Staphylococcus aureus, ATCC25923, 18 h, 35 °C, read-out: minimal inhibitory concentrations (MIC).
Series [7] in a line: in vitro. The conditions noted are these: Syrian hamster (Mesocricetus auratus).
A short description of series [8]: in vitro. The conditions noted are these: cattle (Bos taurus).
The test system of series [9] is S. aureus ATCC 6538. As to the kind of experiment: MIC, twofold serial agar dilution. The series is classed as cell-based. The conditions noted are these: Staphylococcus aureus, ATCC6538, 18 h, 35 °C, read-out: minimal inhibitory concentrations (MIC).
In series [10] the test system is M. luteus ATCC 10240. As to the kind of experiment: MIC, twofold serial agar dilution. The series is classed as cell-based. The conditions noted are these: Micrococcus luteus, ATCC10240, 18 h, 35 °C, read-out: minimal inhibitory concentrations (MIC).
For series [11], the system named is M. luteus ATCC 9341. As to the kind of experiment: MIC, twofold serial agar dilution. In kind it is cell-based. The conditions noted are these: Micrococcus luteus, ATCC9341, 18 h, 35 °C, read-out: minimal inhibitory concentrations (MIC).
Series [12] relates to B. cereus ATCC 11778. In words: disc diffusion method. In kind it is cell-based, Bacillus cereus. The conditions noted are these: Bacillus cereus, ATCC11778, applied 400 µg per disc, dash = lack of the growth inhibition area, read-out: diameter of growth inhibitory zone (GIZ). A general note: A growth-free zone around the sample is the usual read-out of agar diffusion tests.
The subject of series [13] is S. aureus ATCC 6538. As to the kind of experiment: disc diffusion method. In kind it is cell-based, Staphylococcus aureus. The conditions noted are these: Staphylococcus aureus, ATCC6538, applied 400 µg per disc, dash = lack of the growth inhibition area, read-out: diameter of growth inhibitory zone (GIZ).
The next series has as its system S. epidermidis (MRSE). In words: MIC against hospital strains. The conditions noted are these: Staphylococcus epidermidis.
Series [14] concerns M. luteus ATCC 9341. In words: disc diffusion method. In kind it is cell-based, Micrococcus luteus. The conditions noted are these: Micrococcus luteus, ATCC9341, applied 400 µg per disc, dash = lack of the growth inhibition area, read-out: diameter of growth inhibitory zone (GIZ).
The test system of series [15] is S. aureus ATCC 29213. In words: MIC, twofold serial agar dilution. In kind it is cell-based. The conditions noted are these: Staphylococcus aureus, ATCC29213, 18 h, 35 °C, read-out: minimal inhibitory concentrations (MIC).
For series [16], the system named is S. aureus NCTC 4163. As to the kind of experiment: MIC, twofold serial agar dilution. In kind it is cell-based. The conditions noted are these: Staphylococcus aureus, NCTC4163, 18 h, 35 °C, read-out: minimal inhibitory concentrations (MIC).
Series [17] is described as follows: in vitro. The conditions noted are these: human.
Series [18] deals with S. aureus ATCC 29213. In words: disc diffusion method. In kind it is cell-based, Staphylococcus aureus. The conditions noted are these: Staphylococcus aureus, ATCC29213, applied 400 µg per disc, dash = lack of the growth inhibition area, read-out: diameter of growth inhibitory zone (GIZ).
For series [19], the system named is B. cereus ATCC 11778. In words: MIC, twofold serial agar dilution. In kind it is cell-based. The conditions noted are these: Bacillus cereus, ATCC11778, 18 h, 35 °C, read-out: minimal inhibitory concentrations (MIC).
Series [20] has as its system M. luteus ATCC 10240. In words: disc diffusion method. The series is classed as cell-based, Micrococcus luteus. The conditions noted are these: Micrococcus luteus, ATCC10240, applied 400 µg per disc, dash = lack of the growth inhibition area, read-out: diameter of growth inhibitory zone (GIZ).
Series [21] deals with B. subtilis ATCC 6633. As to the kind of experiment: disc diffusion method. In kind it is cell-based, Bacillus subtilis. The conditions noted are these: Bacillus subtilis, ATCC6633, applied 400 µg per disc, dash = lack of the growth inhibition area, read-out: diameter of growth inhibitory zone (GIZ).
In series [22] the test system is S. aureus NCTC 4163. In words: disc diffusion method. The conditions noted are these: Staphylococcus aureus, NCTC4163, applied 400 µg per disc, dash = lack of the growth inhibition area, read-out: diameter of growth inhibitory zone (GIZ). The series is classed as cell-based, Staphylococcus aureus.
Series [23] deals with S. aureus ATCC 25923. In words: disc diffusion method. The conditions noted are these: Staphylococcus aureus, ATCC25923, applied 400 µg per disc, dash = lack of the growth inhibition area, read-out: diameter of growth inhibitory zone (GIZ). In kind it is cell-based, Staphylococcus aureus.
Series [24] in a line: in vitro. The conditions noted are these: African green monkey (Cercopithecus aethiops).

In brackets after ≈: the same amount, converted by molar mass. Bounds are passed on as bounds.

This note sets out measurements from PMC6222422, “Synthesis and Biological Evaluation of Novel Indole-Derived Thioureas” (Molecules : A Journal of Synthetic Chemistry and Natural …, 2018).

As usually defined, the EC50 is the concentration giving half of the maximal effect. As a reminder, the melting point is the temperature of the solid-liquid transition.

Take `C[C@@]1(O)[C@H](O)[C@@H](CO)O[C@H]1n1cnc2c(=O)[nH]c(N)nc21` [2′-C-methyl-guanosine, 2′-C-methylguanosine, reference compound]: the EC50 with BVDV came to 1.1 ± 0.1 µM; with YFV it was 1.9 ± 0.1 µM. Besides, the CC50 in the series “Cytotoxicity, MTT method [1]” is > 10 µM; in “Cytotoxicity, MTT method [2]”, > 10 µM.

For `COc1ccc(NC(=S)NCCc2c[nH]c3ccccc23)cc1` [Compound 2, 1-(2-(1H-Indol-3-yl)ethyl)-3-(4-methoxyphenyl)thiourea], the melting point lay in the range of 146 to 148 °C. Also, the EC50 in the series on BVDV was > 100 µM. The EC50 in the series with Reo-1 was > 44 µM. For the same compound, the EC50 in the series on CV-B5 is > 56 µM. In addition, the EC50 with VV is > 56 µM. The EC50 with YFV is > 44 µM. Besides, in the series on RSV, the concentration giving a half-maximal response (EC50) was > 56 µM. Besides, the EC50 with HIV-1 was > 32 µM. The CC50 in the series “Cytotoxicity, MTT method [3]” worked out at 56 µM. Besides, in the series “Cytotoxicity, MTT method [1]”, the CC50 was > 100 µM. This compound also registered a CC50 in “Cytotoxicity, MTT method [2]” of 44 µM. The compound also displayed a CC50 in “Cytotoxicity, MTT method [4]” of 32 µM. The EC50 in the series with HSV-1 is > 56 µM. In the series with Sb-1, the EC50 is > 56 µM. Moreover, the EC50 in the series on VSV was > 56 µM.

Compound `S=C(NCCc1c[nH]c2ccccc12)Nc1ccccc1Br` [Compound 15, 1-(2-(1H-Indol-3-yl)ethyl)-3-(2-bromophenyl)thiourea] registered a melting point of 150 to 152 °C. The MIC in the series on B. subtilis ATCC 6633 [5] is 50 µg/mL (≈ 134 µM). Besides, the MIC in the series with S. aureus ATCC 25923 [6] came out at 100 µg/mL (≈ 267 µM). The CC50 in “in vitro [7]” stood at 28 µM. Also, the EC50 in the series on BVDV was > 48 µM. Moreover, the CC50 in the series “in vitro [8]” is 48 µM. For the same compound, the MIC in the series with S. aureus ATCC 6538 [9] was 50 µg/mL (≈ 134 µM). Also, the EC50 with Reo-1 is > 28 µM. The MIC in the series on M. luteus ATCC 10240 [10] was 50 µg/mL (≈ 134 µM). The MIC in the series with M. luteus ATCC 9341 [11] was found to be 200 µg/mL (≈ 534 µM). For the same compound, in the series with CV-B5, the EC50 was > 46 µM. Also, in the series on B. cereus ATCC 11778 [12], the zone of inhibition at 400 µg/disc worked out at 14 mm. Further, the zone of inhibition at 400 µg/disc in the series on S. aureus ATCC 6538 [13] was determined as 12 mm. The MIC in the series with S. epidermidis (MRSE) (hospital S. epidermidis MRSE strain 430/11) was 400 µg/mL (≈ 1070 µM). Further, in the series with S. epidermidis (MRSE) (hospital S. epidermidis MRSE strain 431/11), the MIC came out at 50 µg/mL (≈ 134 µM). In the series with S. epidermidis (MRSE) (hospital S. epidermidis MRSE strain 432/11), this compound displayed an MIC of 50 µg/mL (≈ 134 µM). The same compound registered an MIC in the series with S. epidermidis (MRSE) (hospital S. epidermidis MRSE strain 433/11) of 50 µg/mL (≈ 134 µM). In the series with S. epidermidis (MRSE) (hospital S. epidermidis MRSE strain 434/11), this compound gave an MIC of 50 µg/mL (≈ 134 µM). The MIC against S. epidermidis (MRSE) (hospital S. epidermidis MRSE strain 435/11) is 100 µg/mL (≈ 267 µM). Also, the MIC against S. epidermidis (MRSE) (hospital S. epidermidis MRSE strain 436/11) was found to be 100 µg/mL (≈ 267 µM). The same compound gave an MIC against S. epidermidis (MRSE) (hospital S. epidermidis MRSE strain 437/11) of 100 µg/mL (≈ 267 µM). This compound returned an MIC with S. epidermidis (MRSE) (hospital S. epidermidis MRSE strain 438/11) of 200 µg/mL (≈ 534 µM). The MIC against S. epidermidis (MRSE) (hospital S. epidermidis MRSE strain 439/11) was determined as 50 µg/mL (≈ 134 µM). In the series on VV, the EC50 was > 46 µM. Further, in the series on M. luteus ATCC 9341 [14], the zone of inhibition at 400 µg/disc was 13 mm. For the same compound, in the series on S. aureus ATCC 29213 [15], the MIC is 50 µg/mL (≈ 134 µM). For the same compound, in the series with YFV, the EC50 was > 28 µM. In addition, the MIC in the series on S. aureus NCTC 4163 [16] was determined as 50 µg/mL (≈ 134 µM). For the same compound, in the series on RSV, the “activity against RSV (in words)” value is given as “moderately active” and the EC50 amounted to 20 ± 2.5 µM. Further, in the series “in vitro [17]”, the CC50 came out at 46 µM. In the series with HIV-1, the EC50 was > 46 µM. The zone of inhibition at 400 µg/disc in the series with S. aureus ATCC 29213 [18] is 11 mm. Further, the MIC with B. cereus ATCC 11778 [19] was found to be 50 µg/mL (≈ 134 µM). Further, the zone of inhibition at 400 µg/disc in the series with M. luteus ATCC 10240 [20] is 14 mm. For the same compound, in the series on B. subtilis ATCC 6633 [21], the zone of inhibition at 400 µg/disc stood at 15 mm. The zone of inhibition at 400 µg/disc in the series with S. aureus NCTC 4163 [22] was 11 mm. Also, in the series with HSV-1, the EC50 was > 46 µM. In addition, the EC50 in the series with Sb-1 was > 46 µM. For the same compound, the zone of inhibition at 400 µg/disc in the series on S. aureus ATCC 25923 [23] was found to be 11 mm. The CC50 in the series “in vitro [24]” is 46 µM. The EC50 in the series on VSV was > 46 µM.
